Data taken from patent US4312870A, “Pyrazoloquinolines” (Ciba-Geigy Corporation, priority 1980, dated 1982).

Target: Diazepam Receptor
Assay: Diazepam Receptor Binding Assay in vitro (tritiated diazepam, rat fore-brain membranes)
Settings: membranes from rat fore-brain, 0°-5°, pH=7.5, determined graphically; read-out: IC50, concentration required to inhibit the specific binding of 2 nM of tritiated diazepam by 50%
Procedure: The anxiolytic effects of said new compounds can also be estimated by the Diazepam Receptor Binding Assay in vitro, e.g. as described in Nature 266, 732 (1977) or Proc. Nat. Acad. Sci. USA 74, 3805 (1977). Diazepam binds specifically and with high affinity to crude synaptosomal membrane preparations from rat fore-brain. […] When tritiated diazepam is used, the interaction of other drugs with said receptor can be readily assessed thus: Membranes from rat fore-brain are incubated at 0°-5° with tritiated diazepam and various concentrations of the test substances in a physiological medium at the pH=7.5. The membranes, containing the receptors with various amounts of tritiated diazepam, are filtered onto glass fiber filters, which are then […] in a liquid scintillation counter.

Row | Structure (SMILES) | IC50
1 | CNC1=Nc2ccc(Cl)cc2C(c2ccccc2)=[N+]([O-])C1 [chlordiazepoxide] | 400 nM
2 | CN1C(=O)CN=C(c2ccccc2)c2cc(Cl)ccc21 [diazepam] | 5 nM
